Laboratory results: patent publication US9505781B2, “Compositions comprising thienopyrimidine and thienopyridine compounds and methods of use thereof” (The Regents of the University of Michigan, priority 2013, dated 2016)

Assays:
[1] = test system: MLL-AF9 transformed mouse bone marrow cells (BMC); assay: MTT cell viability assay in transformed BMC; type: cell-based; conditions: 72 h incubation, E2H-HLF transformed BMC as negative control, FIG. 3
[2] = test system: Hoxa9 and Meis 1; assay: qRT-PCR of MLL fusion downstream targets; type: cell-based; conditions: qRT-PCR in MLL-AF9 BMC, FIG. 10
Source text: FIG. 10. […] B. qRT-PCR performed in MLL-AF9 BMC for Compound 175.

[3] = biological target: T1, menin-MLL-AF9 interaction (Homo sapiens, UniProt O00255); assay: Co-Immunoprecipitation (co-IP) in HEK293 cells transfected with MLL-AF9; type: cell-based; conditions: HEK293 cells transfected with MLL-AF9, FIG. 2
T1 construct: performed in HEK293 cells transfected with MLL-AF9; endogenous in cells; host or cells: HEK293 cells (transfected with MLL-AF9)
T1 sequence (O00255 1-610): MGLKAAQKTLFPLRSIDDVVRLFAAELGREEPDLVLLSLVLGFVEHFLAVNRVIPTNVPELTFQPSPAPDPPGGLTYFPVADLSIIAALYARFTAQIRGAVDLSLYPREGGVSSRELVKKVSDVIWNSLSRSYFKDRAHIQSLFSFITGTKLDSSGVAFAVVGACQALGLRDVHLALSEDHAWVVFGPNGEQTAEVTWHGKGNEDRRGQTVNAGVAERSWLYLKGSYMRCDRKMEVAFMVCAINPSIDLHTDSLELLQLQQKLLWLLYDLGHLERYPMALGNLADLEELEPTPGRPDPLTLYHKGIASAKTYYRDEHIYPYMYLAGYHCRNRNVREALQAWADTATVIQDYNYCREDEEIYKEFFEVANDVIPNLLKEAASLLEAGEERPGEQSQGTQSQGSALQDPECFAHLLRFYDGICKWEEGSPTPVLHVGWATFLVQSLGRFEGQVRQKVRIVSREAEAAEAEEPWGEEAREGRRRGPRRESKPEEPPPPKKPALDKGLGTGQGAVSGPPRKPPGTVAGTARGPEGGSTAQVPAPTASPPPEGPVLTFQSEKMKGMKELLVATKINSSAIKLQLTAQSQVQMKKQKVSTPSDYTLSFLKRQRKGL

[4] = biological target: T2, menin-MLL interaction (Homo sapiens, UniProt O00255); assay: biochemical
T2 sequence (O00255 1-610): T1 sequence (O00255 1-610)
Source text: Compounds that inhibit the interaction decrease the fluorescence anisotropy which is being used as a read-out for compound screening and for IC50 determination.

[5] = test system: MLL-AF9 BMC; assay: Colony formation assay; type: cell-based; conditions: each round 7 days, FIG. 7
Source text: FIG. 7. […] Each round takes 7 days.

[6] = test system: human MLL leukemia cell lines; assay: MTT cell viability assay in human leukemia cell lines; type: cell-based; conditions: 3 days of incubation, FIG. 11
[7] = test system: MLL-AF9 leukemia; assay: In vivo efficacy in mice model of MLL-AF9 leukemia; conditions: once daily i.p. injections of 75 mg/kg dose, FIG. 18
Source text: FIG. 18. In vivo efficacy studies with compound 108 in mice model of MLL-AF9 leukemia.

[8] = test system: MLL-AF9 BMC; assay: Differentiation (CD11b expression, cell morphology); type: cell-based; conditions: CD11b expression level and cell morphology, FIG. 9
[9] = test system: MLL-AF9 transformed BMC; assay: Growth curves experiments in transformed BMC; type: cell-based; conditions: MLL-AF9 BMC vs Hoxa9/Meis1 transformed BMC (negative control), FIG. 5
[10] = test system: non-MLL leukemia cell lines; assay: Growth inhibition of non-MLL leukemia cell lines; type: cell-based; conditions: FIG. 13 B
[11] = test system: human MLL leukemia cell lines; assay: Growth inhibition of human MLL leukemia cell lines; type: cell-based; conditions: FIG. 13 A

IC50 [4] [nM]	Structure (SMILES)	further results
	CC1(C)CN=C(N2CCN(c3ncnc4sc(CC(F)(F)F)cc34)CC2)S1 [Compound 1, 4-(4-(5,5-dimethyl-4,5-dihydrothiazol-2-yl)piperazin-1-yl)-6-(2,2,2-trifluoroethyl)thieno[2,3-d]pyrimidine]	inhibition of proliferation [1]: selectively inhibit proliferation of MLL leukemia cells; expression of Hoxa9 and Meis 1 [2]: downregulate expression of downstream targets of MLL fusion proteins; inhibition of the menin-MLL-AF9 interaction [3]: inhibition of the menin-MLL-AF9 interaction
< 100	N#Cc1cc2cc(CN3CCC(Nc4ncnc5sc(CC(F)(F)F)cc45)CC3)ccc2[nH]1 [Compound 175, 5-((4-((6-(2,2,2-trifluoroethyl)thieno[2,3-d]pyrimidin-4-yl)amino)piperidin-1-yl)methyl)-1H-indole-2-carbonitrile]	differentiation [8]: Differentiation induced; selectivity in growth curves [9]: great selectivity of the compound towards MLL fusion protein transformed cells; expression of Hoxa9 and Meis 1 [2]: downregulate expression of downstream targets of MLL fusion proteins; inhibition of the menin-MLL-AF9 interaction [3]: inhibition of the menin-MLL-AF9 interaction; growth inhibition [10]: limited effect; growth inhibition [11]: selectively inhibits growth of human MLL leukemia cell lines
100 to 500	N#Cc1cc2cc(CN3CCC(Nc4ncnc5sc(CC(F)(F)F)cc45)CC3)ccc2n1Cc1cc(OCCCC2CC2)n[nH]1 [Compound 414]	
100 to 500	N#Cc1cc2cc(CN3CCC(Nc4ncnc5sc(CC(F)(F)F)cc45)CC3)ccc2n1Cc1cc(OCCCCC2CC2)n[nH]1 [Compound 415]	
100 to 500	N#Cc1cc2cc(CN3CCC(Nc4ncnc5sc(CC(F)(F)F)cc45)CC3)ccc2n1Cc1cc(OCCCC2CCCC2)n[nH]1 [Compound 416]	
100 to 500	Cc1c(C#N)[nH]c2ccc(CN3CCC(Nc4ncnc5sc(CC(F)(F)F)cc45)CC3)cc12 [Compound 417]	
500 to 2000	N#Cc1cc2cc(CN3CCC(Nc4c(COCCC5CCCC5)cnc5sc(CC(F)(F)F)cc45)CC3)ccc2[nH]1 [Compound 418]	
500 to 2000	N#Cc1cc2cc(CN3CCC(Nc4c(COCCCC5CCCC5)cnc5sc(CC(F)(F)F)cc45)CC3)ccc2[nH]1 [Compound 419]	
500 to 2000	N#Cc1cc2cc(CN3CCC(Nc4c(COCc5cc[nH]n5)cnc5sc(CC(F)(F)F)cc45)CC3)ccc2[nH]1 [Compound 420]	
500 to 2000	N#Cc1cc2cc(CN3CCC(Nc4c(COCC5CCCC5)cnc5sc(CC(F)(F)F)cc45)CC3)ccc2[nH]1 [Compound 421]	
< 100	Cc1c(CN2CCC(Nc3ncnc4sc(CCF)cc34)CC2)ccc2[nH]c(C#N)cc12 [Compound 423]	
< 100	N#Cc1cc2nc(CN3CCC(Nc4ncnc5sc(CC(F)(F)F)cc45)CC3)ccc2[nH]1 [Compound 424]	
< 100	Cc1c(CN2CCC(Nc3ncnc4sc(CC(F)(F)F)cc34)CC2)ccc2c1cc(C#N)n2CC(O)(CO)CCCC1CC1 (centres unmarked) [Compound 425]	
< 100	Cc1c(CN2CCC(Nc3ncnc4sc(CC(F)(F)F)cc34)CC2)ccc2c1cc(C#N)n2CC1CN(C)C(=O)CO1 (centres unmarked) [Compound 426]	
< 100	Cc1c(CN2CCC(Nc3ncnc4sc(CC(F)(F)F)cc34)CC2)ccc2c1cc(C#N)n2CC1CCC(=O)N1 (centres unmarked) [Compound 427]	
< 100	Cc1c(CN2CCC(Nc3ncnc4sc(CC(F)(F)F)cc34)CC2)ccc2c1cc(C#N)n2CC1CCC(=O)NC1 (centres unmarked) [Compound 428]	
< 100	Cc1c(CN2CCC(Nc3ncnc4sc(CC(F)(F)F)cc34)CC2)ccc2c1cc(C#N)n2CC1CNC(=O)C1 (centres unmarked) [Compound 430]	

Structure (SMILES)	IC50 [4] [nM]	further results
FC(F)(F)Cc1cc2c(NC3CCN(Cc4ccccc4)CC3)ncnc2s1 [Compound 108]	100 to 500	inhibition of proliferation [1]: selectively inhibit proliferation of MLL leukemia cells; morphology of colonies [5]: changes morphology of colonies; expression of Hoxa9 and Meis 1 [2]: downregulate expression of downstream targets of MLL fusion proteins; inhibition of the menin-MLL-AF9 interaction [3]: inhibition of the menin-MLL-AF9 interaction; growth inhibition [6]: selectively inhibit growth of human MLL leukemia cell lines; survival of leukemic mice [7]: Increase in survival of leukemic mice
